For one test, the target named is T1, ΔTM rFAAH (Rattus norvegicus, UniProt P97612).
T1 construct: 15 ug of ΔTM rFAAH (cell lysate obtained by recombinant procedure); made in house
T1 sequence (P97612 30-579 limits assumed): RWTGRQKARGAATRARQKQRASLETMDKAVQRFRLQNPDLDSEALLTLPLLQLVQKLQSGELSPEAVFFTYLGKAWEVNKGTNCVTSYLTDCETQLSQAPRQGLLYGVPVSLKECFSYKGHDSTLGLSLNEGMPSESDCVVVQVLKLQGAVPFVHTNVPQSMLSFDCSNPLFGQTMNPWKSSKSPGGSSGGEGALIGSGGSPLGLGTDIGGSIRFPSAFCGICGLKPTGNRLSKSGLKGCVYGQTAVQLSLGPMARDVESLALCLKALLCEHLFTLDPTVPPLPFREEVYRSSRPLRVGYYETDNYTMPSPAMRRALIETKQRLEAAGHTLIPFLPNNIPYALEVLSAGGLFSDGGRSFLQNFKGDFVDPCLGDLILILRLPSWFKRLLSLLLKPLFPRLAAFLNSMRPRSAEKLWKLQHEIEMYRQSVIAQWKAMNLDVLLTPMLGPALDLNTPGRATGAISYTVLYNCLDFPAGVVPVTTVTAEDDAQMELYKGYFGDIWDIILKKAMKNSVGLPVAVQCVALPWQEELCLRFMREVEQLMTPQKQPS
The experiment in a line: Fluorescent enzyme assay, FAAH (AAMCA hydrolysis). In kind it is biochemical. Particulars: 1000 nM inhibitor; AAMCA substrate; screening assay.

The subject of test [1] is rats (KA-induced seizures). Kind of test: KA-induced seizures in rats, seizure scoring for 4 h. In kind it is in vivo. Particulars: 5 mg/kg injected immediately after 10 mg/kg KA; 4-h rating period. As to the method:
These compounds were tested in vivo. Seizures were initiated in rats by injection with 10 mg/kg of KA (insult).

In another test the target is T2, hMGL (Homo sapiens, UniProt Q99685).
T2 construct: A full-length cDNA clone of the human MGL transcript variant 1; made in house; host or cells: E. coli BL21 (DE3)
T2 sequence (Q99685 2-303 limits assumed): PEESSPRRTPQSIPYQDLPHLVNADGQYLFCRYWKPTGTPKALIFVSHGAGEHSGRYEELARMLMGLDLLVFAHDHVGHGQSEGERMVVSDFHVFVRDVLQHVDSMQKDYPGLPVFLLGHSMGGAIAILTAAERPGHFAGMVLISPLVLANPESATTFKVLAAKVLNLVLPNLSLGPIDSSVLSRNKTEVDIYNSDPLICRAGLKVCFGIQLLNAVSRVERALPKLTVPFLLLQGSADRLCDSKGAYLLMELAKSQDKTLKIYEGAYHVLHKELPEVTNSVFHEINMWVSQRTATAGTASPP
The experiment in a line: Fluorescent enzyme assay, MGL (AHMMCE hydrolysis). In kind it is biochemical. Particulars: 1000 nM inhibitor; AHMMCE substrate; screening assay. The method in brief: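 Recombinant N-terminal His6-tagged human MGL (transcript variant 1) expressed in E. coli BL21(DE3), purified by metal-affinity chromatography. Inhibition measured as reduction in rate of AHMMCE hydrolysis; % inhibition from three inhibitor concentrations, IC50/Ki from eight-point curves.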

Results on three compounds are retold here after patent US9271962B2 (NORTHEASTERN UNIVERSITY, priority 2008, dated 2016).

As for `C#CCc1nnnn1C(=O)N(C)C` [Compound 2, N,N-dimethyl-5-prop-2-yn-1-yl-1H-tetrazole-1-carboxamide], the inhibition (usually the percentage by which the read-out fell short of the control) at 1 µM is 90% at ΔTM rFAAH and 35% against hMGL. Also, the KA-induced seizure severity result in test [1] is “reduce KA-induced seizure severity”.
With `CN(C)C(=O)N1C=NC2C(N=CN2C(=O)N(C)C)C1=O` (stereo not shown) [Compound 62, N^1,N^1,N^9,N^9-tetramethyl-6-oxo-5,6-dihydro-4H-purine-1,9-dicarboxamide], the inhibition at 1 µM at ΔTM rFAAH turned out to be 99%; on hMGL, 83%.
On to `CN(C)C(=O)n1cc(Cc2ccccc2)nn1` [Compound 70, 4-benzyl-N,N-dimethyl-1,2,3-triazole-1-carboxamide], for which the inhibition at 1 µM is 98% on ΔTM rFAAH and 99% on hMGL.
